Source: patent EP2253620B1, “SUBSTITUTED 3-CYANOQUINOLINES AS PROTEIN TYROSINE KINASES INHIBITORS” (Wyeth Holdings LLC, priority 1998, dated 2000)
Converted amounts (≈) assume the structure as drawn.

How the values were obtained:
[1] = biological target: T1, epidermal growth factor receptor kinase (Homo sapiens, UniProt P00533); assay: Inhibition of Epidermal Growth Factor Receptor Kinase (EGF-R) using recombinant enzyme; format: biochemical; settings: averages of the individual determinations
T1 construct: containing the EGFR cDNA encoding amino acids 645 - 1186 preceded by Met-Ala-(His)6; made in house; host or cells: Sf9 insect cells, recombinant baculovirus vHcEGFR52
T1 sequence (P00533 669-1210): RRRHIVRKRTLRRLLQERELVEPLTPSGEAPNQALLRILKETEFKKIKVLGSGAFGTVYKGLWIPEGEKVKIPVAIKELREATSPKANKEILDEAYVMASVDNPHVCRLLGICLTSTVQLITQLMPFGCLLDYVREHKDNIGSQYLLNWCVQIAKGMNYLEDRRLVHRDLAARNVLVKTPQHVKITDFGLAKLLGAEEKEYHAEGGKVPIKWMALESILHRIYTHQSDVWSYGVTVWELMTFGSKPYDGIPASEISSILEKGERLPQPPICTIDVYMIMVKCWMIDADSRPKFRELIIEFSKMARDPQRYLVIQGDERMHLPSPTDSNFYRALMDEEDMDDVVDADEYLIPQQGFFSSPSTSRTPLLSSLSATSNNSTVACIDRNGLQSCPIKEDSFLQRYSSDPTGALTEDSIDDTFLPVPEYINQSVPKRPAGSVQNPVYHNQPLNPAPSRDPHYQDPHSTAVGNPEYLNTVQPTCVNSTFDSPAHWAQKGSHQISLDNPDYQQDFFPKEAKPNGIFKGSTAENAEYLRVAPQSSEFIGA
Method: Representative test compounds were evaluated for their ability to inhibit the phosphorylation of the tyrosine residue of a peptide substrate catalyzed by the enzyme epidermal growth factor receptor kinase. […] The enzyme used in this assay is the His-tagged cytoplasmic domain of EGFR. A recombinant baculovirus (vHcEGFR52) was constructed containing the EGFR cDNA encoding amino acids 645 - 1186 preceded by Met-Ala-(His)6. Sf9 cells in 100 mm plates were infected at an moi of 10 pfu/cell and cells were harvested 48 h post infection. A cytoplasmic extract was prepared using 1% Triton X-100 and applied to Ni-NTA column. After washing the column with 20 mM imidazole, HcEGFR was eluted with 250 mM imidazole (in 50 mM Na2HPO4, pH 8.0, 300 mM NaCl). Fractions collected were dialyzed against 10 mM HEPES, pH 7.0, 50 mM NaCl, 10% glycerol, 1ug/mL antipain and leupeptin and 0.1 mM Pefabloc SC. The protein was frozen in dry ice/methanol and stored -70°C.
Test compounds were made into 10 mg/mL stock solutions in 100% dimethylsulfoxide (DMSO). Prior to experiment, stock solutions were diluted to 500 uM with 100% DMSO and then serially diluted to the desired concentration with HEPES buffer (30 mM HEPES pH 7.4).
For the enzyme reaction, 10 µL of each inhibitor (at various concentrations) were added to each well of a 96-well plate. To this was added 3 µL of enzyme (1:10 dilution in 10mM HEPES, pH 7.4 for final conc. of 1:120). This was allowed to sit for 10 min on ice and was followed by the addition of 5 µl peptide (80 µM final conc.), 10 µl of 4X Buffer (Table A), 0.25 µL ^33P-ATP and 12 µL H2O. The reaction was allowed to run for 90 min at room temperature and was followed by spotting the entire volume on to precut P81 filter papers. The filter discs were washed 2X with 0.5% phosphoric acid and radioactivity was measured using a liquid scintillation counter.
The % inhibition of the test compound was determined for at least three different concentrations and the IC50 value was evaluated from the dose response curve. […] CPM(control) is in units of counts per minute and was a number expressing the amount of radiolabled ATP (g-^33P) incorporated into the RR-SRC peptide substrate by the enzyme after 90 minutes at room temperature in the absence of test compound as measured by liquid scintillation counting. The CPM values were corrected for the background counts produced by ATP in the absence of the enzymatic reaction. The IC50 values in TABLE 1 are averages of the individual determinations.

A431 = assay: Inhibition of Cancer Cell Growth as Measured by Cell Number; format: cell-based, Human; settings: 48 hours exposure, Sulforhodamine B; for IC50: Homo sapiens, A-431
Method: (§1) Inhibition of Cancer Cell Growth as Measured bv Cell Number
(§2) Human tumor cell lines were plated in 96-well plates (250 µl/well, 1-6 x 10^4 cells/ml) in RPMI 1640 medium, containing 5% FBS (Fetal Bovine Serum). […] After 48 hours exposure to test compounds, cells were fixed with trichloroacetic acid, and stained with Sulforhodamine B. After washing with trichloroacetic acid, bound dye was solubilized in 10 mM Tris base and optical density was determined using plate reader. Under conditions of the assay the optical density is proportional to the number of cells in the well. […] The test procedure is described in details by Philip Skehan et. al, J.Natl. Canc. Inst., 82, 1107-1112 (1990). […] Information about some of the cell lines used in these test procedures is available from the American Type Tissue Collection: Cell Lines and Hybridomas, 1994 Reference Guide, 8th Edition.

MDAMB435 = assay: as above; format: cell-based, Human; settings: 48 hours exposure, Sulforhodamine B; for IC50: Homo sapiens, MDA-MB-435
Method: as §1, §2

SKBR3 = assay: as above; format: cell-based, Human; settings: 48 hours exposure, Sulforhodamine B; for IC50: Homo sapiens, SK-BR-3
Method: as §1, §2

SW620 = assay: as above; format: cell-based, Human; settings: 48 hours exposure, Sulforhodamine B; for IC50: Homo sapiens, SW-620
Method: as §1, §2

3T3 = assay: as above; format: cell-based; settings: 48 hours exposure, Sulforhodamine B; for IC50: Mus musculus, NIH3T3
Method: as §1, §2

Her2/3T3 = assay: as above; format: cell-based; settings: 48 hours exposure, Sulforhodamine B
Method: as §1, §2

[2] = system: Human Epidermoid Tumors (A431); assay: In Vivo Inhibition of the Growth of Human Epidermoid Tumors (A431) in mice; settings: for Relative Tumor Growth Day 7 / % T/C Day 7 / Relative Tumor Growth Day 14 / % T/C Day 14 / Relative Tumor Growth Day 21 / % T/C Day 21 / Relative Tumor Growth Day 28 / % T/C Day 28 / S/T (# of Survivors/# of Treated) / Relative Tumor Growth Day 20 / % T/C Day 20: days 1 through 10; for % T/C Day 7 / % T/C Day 14 / % T/C Day 21 / % T/C Day 28 / % T/C Day 20: * = p < 0.01; for S/T (# of Survivors/# of Treated): Day +28 post tumor staging
Method: In Vivo Inhibition of the Growth of Human Epidermoid Tumors (A431)
BALB/c nu/nu female mice (Charles River, Wilmington, MA) were used in the in vivo standard pharmacological test procedures. Human epidermoid carcinoma cells A-431 (American Type Culture Collection, Rockville, Maryland # CRL-155) were grown in vitro as described above. A unit of 5 X 10^6 cells were injected SC into mice. […] Control animals received no drug. […] […] The %T/C (Tumor/Control) is determined by dividing the relative tumor growth of the treated group by the relative tumor growth of the placebo group and multiplying by 100.

With `COc1cc2ncc(C#N)c(Nc3ccc(F)c(Cl)c3)c2cc1NC(=O)C=CCN1CCCC(CO)C1.Cl` (stereo not shown) [Example 91, 4-(3-Hydroxymethyl-piperidin-1-yl)-but-2-enoic acid [4-(3-chloro-4-fluoro-phenylamino)-3-cyano-7-methoxy-quinolin-6-yl]-amide hydrochloride] the IC50 [1] was 15 nM, the IC50 (A431) was 0.232 µg/mL and the IC50 (MDAMB435) was 1.83 µg/mL. It also gave an IC50 (SKBR3) of 0.181 µg/mL, an IC50 (SW620) of 1.73 µg/mL and an IC50 (3T3) of 2.87 µg/mL. For the same compound, the IC50 (Her2/3T3) was 0.375 µg/mL.

Work on `COC[C@@H]1CCCN1CC=CC(=O)Nc1cc2c(Nc3ccc(F)c(Cl)c3)c(C#N)cnc2cc1OC.Cl.Cl` [Example 90, (S)-4-(2-Methoxymethyl-pyrrolidin-1-yl)-but-2-enoic acid [4-(3-chloro-4-fluoro-phenylamino)-3-cyano-7-methoxy-quinolin-6-yl]-amide dihydrochloride] yielded an IC50 (A431) of 0.234 µg/mL, an IC50 (MDAMB435) of 1.74 µg/mL and an IC50 (SKBR3) of 0.148 µg/mL. For the same compound, the IC50 (SW620) was 1.24 µg/mL, the IC50 (3T3) was 2.1 µg/mL and the IC50 (Her2/3T3) was 0.329 µg/mL.

For `COCCN(C)CC=CC(=O)Nc1cc2c(Nc3ccc(F)c(Cl)c3)c(C#N)cnc2cc1OC.Cl.Cl` [Example 89, 4-[(2-Methoxy-ethyl)-methyl-amino]-but-2-enoic acid [4-(3-chloro-4-fluoro-phenylamino)-3-cyano-7-methoxy-quinolin-6-yl]-amide dihydrochloride], the IC50 [1] was 10 nM, the IC50 (A431) was 0.245 µg/mL and the IC50 (MDAMB435) was 2.07 µg/mL. The IC50 (SKBR3) was 0.107 µg/mL, the IC50 (SW620) was 1.53 µg/mL and the IC50 (3T3) was 2.04 µg/mL. For the same compound, the IC50 (Her2/3T3) was 0.192 µg/mL, the “Relative Tumor Growth Day 7” value ([2]; Table 5, 10 mg/kg/dose PO) was 2.09 and the “% T/C Day 7” value ([2]; Table 5, 10 mg/kg/dose PO) was 50* %. The “Relative Tumor Growth Day 14” value ([2]; Table 5, 10 mg/kg/dose PO) was 3.37, the “% T/C Day 14” value ([2]; Table 5, 10 mg/kg/dose PO) was 32* % and the “Relative Tumor Growth Day 21” value ([2]; Table 5, 10 mg/kg/dose PO) was 5.76. For the same compound, the “% T/C Day 21” value ([2]; Table 5, 10 mg/kg/dose PO) was 38* %, the “Relative Tumor Growth Day 28” value ([2]; Table 5, 10 mg/kg/dose PO) was 7.24 and the “% T/C Day 28” value ([2]; Table 5, 10 mg/kg/dose PO) was 26* %. For the same compound, the “S/T (# of Survivors/# of Treated)” value ([2]; Table 5, 10 mg/kg/dose PO) was 4/5, the “Relative Tumor Growth Day 7” value ([2]; Table 5, 40 mg/kg/dose PO) was 0.49 and the “% T/C Day 7” value ([2]; Table 5, 40 mg/kg/dose PO) was 11* %. For the same compound, the “Relative Tumor Growth Day 14” value ([2]; Table 5, 40 mg/kg/dose PO) was 0.58, the “% T/C Day 14” value ([2]; Table 5, 40 mg/kg/dose PO) was 6* % and the “Relative Tumor Growth Day 21” value ([2]; Table 5, 40 mg/kg/dose PO) was 3.11. For the same compound, the “% T/C Day 21” value ([2]; Table 5, 40 mg/kg/dose PO) was 21* %, the “Relative Tumor Growth Day 28” value ([2]; Table 5, 40 mg/kg/dose PO) was 7.20 and the “% T/C Day 28” value ([2]; Table 5, 40 mg/kg/dose PO) was 26* %. The “S/T (# of Survivors/# of Treated)” value ([2]; Table 5, 40 mg/kg/dose PO) was 5/5 and the “inhibition of tumor growth in vivo” value ([2]; given orally at 40 mg/Kg and 10 mg/Kg) was “effective inhibitor of tumor growth in vivo”.

With `COc1cc2ncc(C#N)c(Nc3ccc(F)c(Cl)c3)c2cc1NC(=O)C=CCN1CCC2(CC1)OCCO2` [Example 92, 4-(1,4-Dioxa-8-aza-spiror[4.5]dec-8-yl)-but-2-enoic acid [4-(3-chloro-4-fluoro-phenylamino)-3-cvano-7-methox-quinolin-6-yl]-amide] the “IC50 A431” value (A431) was 0.283 µg/mL (≈ 0.513 µM), the “IC50 MDAMB435” value (MDAMB435) was 3.32 µg/mL (≈ 6.01 µM) and the “IC50 SKBR3” value (SKBR3) was 0.188 µg/mL (≈ 0.341 µM). The “IC50 SW620” value (SW620) was 2.51 µg/mL (≈ 4.55 µM), the “IC50 3T3” value (3T3) was 2.79 µg/mL (≈ 5.05 µM) and the “IC50 Her2/3T3” value (Her2/3T3) was 0.35 µg/mL (≈ 0.634 µM). For the same compound, the “Relative Tumor Growth Day 7” value ([2]; Table 4, 10 mg/kg/dose PO) was 3.94, the “% T/C Day 7” value ([2]; Table 4, 10 mg/kg/dose PO) was 72% and the “Relative Tumor Growth Day 14” value ([2]; Table 4, 10 mg/kg/dose PO) was 10.41. The “% T/C Day 14” value ([2]; Table 4, 10 mg/kg/dose PO) was 100%, the “Relative Tumor Growth Day 20” value ([2]; Table 4, 10 mg/kg/dose PO) was 14.76 and the “% T/C Day 20” value ([2]; Table 4, 10 mg/kg/dose PO) was 119%. For the same compound, the “Relative Tumor Growth Day 28” value ([2]; Table 4, 10 mg/kg/dose PO) was 22.51, the “% T/C Day 28” value ([2]; Table 4, 10 mg/kg/dose PO) was 159% and the “S/T (# of Survivors/# of Treated)” value ([2]; Table 4, 10 mg/kg/dose PO) was 5/5. For the same compound, the “Relative Tumor Growth Day 7” value ([2]; Table 4, 40 mg/kg/dose PO) was 1.49, the “% T/C Day 7” value ([2]; Table 4, 40 mg/kg/dose PO) was 27* % and the “Relative Tumor Growth Day 14” value ([2]; Table 4, 40 mg/kg/dose PO) was 1.58. The “% T/C Day 14” value ([2]; Table 4, 40 mg/kg/dose PO) was 15* %, the “Relative Tumor Growth Day 20” value ([2]; Table 4, 40 mg/kg/dose PO) was 2.60 and the “% T/C Day 20” value ([2]; Table 4, 40 mg/kg/dose PO) was 21* %. The “Relative Tumor Growth Day 28” value ([2]; Table 4, 40 mg/kg/dose PO) was 6.22, the “% T/C Day 28” value ([2]; Table 4, 40 mg/kg/dose PO) was 44% and the “S/T (# of Survivors/# of Treated)” value ([2]; Table 4, 40 mg/kg/dose PO) was 5/5. For the same compound, the “inhibition of tumor growth in vivo” value ([2]; given orally at 40 mg/Kg) was “effective inhibitor of tumor growth in vivo”.
